These results are taken from patent US20040067923A1, “Use of biogenic estriol sulfamate prodrugs for treatment of autoimmune diseases” (priority 2002, published 2004).

Series [1] concerns ovariectomised Wistar rats. Conditions: 28 days.
Method: Adult Wistar rats (6 months old) were ovariectomised and orally treated with estriol-3-O-sulfamate, reference compound and vehicle, respectively. Effects on bone mineral density after 28 days of treatment were determined.
Series [2] has as its system ovariectomised Wistar rats.
Method: Adult Wistar rats (6 months old) were ovariectomised and orally treated with estriol-3-O-sulfamate, reference compound and vehicle, respectively. Effects of treatment on uterine weight after 28 days of treatment were determined.
The conditions of series [3]: Head et al., 1998; cited from earlier work.
The conditions of series [4]: 12 mg/day, Lindsay et al., 1979; cited from earlier work.
The conditions of series [5]: Heithecker et al., 1991; cited from earlier work.
The mark [6] stands for this setting: ovariectomised Wistar rats, 28 days.

As for `C[C@]12CC[C@@H]3c4ccc(OS(N)(=O)=O)cc4CC[C@H]3[C@@H]1C[C@@H](O)[C@@H]2O` [estriol-3-sulfamate], the “oral dose at which the loss in bone mineral density could be nearly restored” value in series [1] is 10 μg/animal/day. Also, the “systemic estrogen activity after oral application compared with estriol” value in series [2] (conclusion based on Examples 1, 2 and 3) was “much higher systemic estrogen activity”. For the same molecule, in series [2] (setting [6]), the “oral dose to increase the uterine weight to basal level” value is 100 μg/animal/day. In addition, the “potency relative to estriol administered orally, uterine weight test” value in series [2] (ovariectomised Wistar rats, oral) is “about 3 fold”. Moreover, the “uterine weight dose relative to dose showing osteoprotective effects (tissue selectivity)” value in series [2] (ovariectomised Wistar rats, oral, 28 days) is given as “ten times more”.
`C[C@]12CC[C@@H]3c4ccc(O)cc4CC[C@H]3[C@@H]1C[C@@H](O)[C@@H]2O` [estriol]: in series [1], the “bone sparing effect at doses used for oral application of estriol-3-sulfamate” value is “no bone sparing effect”. For the same molecule, the “oral amount needed to achieve comparable serum levels of estriol as after intravaginal application” value in series [3] is reported as “ten times more”. Moreover, in series [2] (setting [6]), the “oral dose to increase the uterine weight to basal level” value was determined as 300 μg/animal/day. Also, the “osteoprotective effects after oral administration” value in series [4] is recorded as “not able to show the osteoprotective effects”. Also, the half-life in series [5] is 1.5 to 5.3 h.
